Literature values as cited in patent publication US20080096857A1, “Photodynamic Therapy For The Treatment Of Hyperactive Sebaceous Gland Disorders Using Topically Applied Hydrophobic Green Porphyrins” (QLT Inc., priority 2004, published 2008).

Tested on: acne vulgaris
Settings: topical ALA-PDT of acne vulgaris; J. Invest Dermatol 115:183-192, 2000

Structure (SMILES): NCC(=O)CCC(=O)O [ALA, 5-aminolevulinic acid]
- adverse events during and after the treatment: serious adverse events that occurred during and after the treatment including erythema, edema, and sensations of pain, burning and itching
